Source: the supplement of paper PMC11061612

Columns and labels:
[1] = system: C-4-I (Cervical Carcinoma); experiment: Bliss excess, mean over the matrix (fraction); higher = more synergy
In short: (§1)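 Cell lines in DMEM/F12 or RPMI with 10% FBS were plated in 1536-well plates, held 24 hours at 37°C, 5% CO2, then given two-drug dose matrices for 72 hours (DMSO typically 0.2%). Viability was read by CellTiter-Glo 2.0 luminescence and scaled as inhibition from 0 (vehicle wells) to 1 (blank wells). Combination Emax is the second-highest inhibition in the matrix; Bliss excess is observed combination effect minus expected EA + EB − EA·EB, EA and EB being single-agent effects.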

[2] = system: HOP-62 (Lung Adenocarcinoma); experiment: as above
In short: as §1

[3] = system: HSC-4 (Oral Cavity Carcinoma); experiment: as above
In short: as §1

[4] = system: NCI-H1915 (Non-Small Cell Lung Carcinoma); experiment: as above
In short: as §1

[5] = system: NEC8 (Other Solid Carcinomas); experiment: as above
In short: as §1

[6] = system: OE19 (Esophageal Adenocarcinoma); experiment: as above
In short: as §1

[7] = system: OSC-20 (Oral Cavity Carcinoma); experiment: as above
In short: as §1

PWR-1E (Non-Cancerous) = experiment: as above
In short: as §1

[8] = system: SCC-15 (Oral Cavity Carcinoma); experiment: as above
In short: as §1

[9] = system: VA-ES-BJ (Other Solid Carcinomas); experiment: as above
In short: as §1

[10] = system: Ca9-22 (Head and Neck Carcinoma); experiment: combination Emax (second highest fraction inhibited in the dose matrix, 72 h); higher = more inhibition; extreme values may be limits of the assay
In short: as §1

[11] = system: Caov-4 (Ovarian Carcinoma); experiment: as above
In short: as §1

[12] = system: EFM-19 (Breast Carcinoma); experiment: as above
In short: as §1

[13] = system: Hs-766T (Pancreatic Carcinoma); experiment: as above
In short: as §1

[14] = system: KARPAS-299 (T-Cell Non-Hodgkin's Lymphoma); experiment: as above
In short: as §1

[15] = system: KYSE-450 (Esophageal Squamous Cell Carcinoma); experiment: as above
In short: as §1

[16] = system: NCI-H727 (Other Solid Carcinomas); experiment: as above
In short: as §1

[17] = system: PANC-04-03 (Pancreatic Carcinoma); experiment: as above
In short: as §1

[18] = system: SW13 (Other Solid Carcinomas); experiment: as above
In short: as §1

TGW (Neuroblastoma) = experiment: as above
In short: as §1
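Throughout, for Bliss excess, mean over the matrix: after 72 h of two-drug dosing.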

SMILES	Bliss excess [1]	Bliss excess [2]	Bliss excess [3]	Bliss excess [4]	Bliss excess [5]	Bliss excess [6]	Bliss excess [7]	Bliss excess (PWR-1E (Non-Cancerous))	Bliss excess [8]	Bliss excess [9]	combination Emax [10]	combination Emax [11]	combination Emax [12]	combination Emax [13]	combination Emax [14]	combination Emax [15]	combination Emax [16]	combination Emax [17]	combination Emax [18]	combination Emax (TGW (Neuroblastoma))
CN(CCO)CC[C@H](CSc1ccccc1)Nc1ccc(S(=O)(=O)NC(=O)c2ccc(N3CCC([C@@H](O)c4ccccc4-c4ccc(Cl)cc4)CC3)cc2)cc1S(=O)(=O)C(F)(F)F [AZD4320] + C1CN(CCC1(C(=O)N[C@@H](CCO)C2=CC=C(C=C2)Cl)N)C3=NC=NC4=C3C=CN4 [Capivasertib] (first compound max 1 µM, 7x7, partner max 3 µM)	-0.0101	-0.0414	-0.0269	-0.0459	-0.0356	-0.0479	-0.0513	-0.0067	-0.0606	-0.0376	0.301	0.131	0.87	0.204	0.0749	0.199	0.484	0.178	0.138	0.924
CN(CCO)CC[C@H](CSc1ccccc1)Nc1ccc(S(=O)(=O)NC(=O)c2ccc(N3CCC([C@@H](O)c4ccccc4-c4ccc(Cl)cc4)CC3)cc2)cc1S(=O)(=O)C(F)(F)F [AZD4320] + C=CCn1c(=O)c2cnc(Nc3ccc(N4CCN(C)CC4)cc3)nc2n1-c1cccc(C(C)(C)O)n1 [AZD1775] (first compound max 1 µM, partner max 1 µM)	0.0656	-0.0356	0.023	0.0125	0.0272	0.0072	-0.0933	-0.0111	0.0336	0.006	0.851	0.857	0.716	0.398	0.938	0.64	0.515	0.486	0.167	1
CN(CCO)CC[C@H](CSc1ccccc1)Nc1ccc(S(=O)(=O)NC(=O)c2ccc(N3CCC([C@@H](O)c4ccccc4-c4ccc(Cl)cc4)CC3)cc2)cc1S(=O)(=O)C(F)(F)F [AZD4320] + CC(=O)O[C@H]1C(=O)[C@@]2(C)[C@H]([C@H](OC(=O)c3ccccc3)[C@]3(O)C[C@H](OC(=O)[C@H](O)[C@@H](NC(=O)c4ccccc4)c4ccccc4)C(C)=C1C3(C)C)[C@]1(OC(C)=O)CO[C@@H]1C[C@@H]2O [Paclitaxel] (first compound max 1 µM, 7x7, partner max 3 µM)											0.997	0.795	1	0.436	0.837	0.875	0.82	0.585	1	1
CN(CCO)CC[C@H](CSc1ccccc1)Nc1ccc(S(=O)(=O)NC(=O)c2ccc(N3CCC([C@@H](O)c4ccccc4-c4ccc(Cl)cc4)CC3)cc2)cc1S(=O)(=O)C(F)(F)F [AZD4320] + CCN(CCO)CCCOc1ccc2c(Nc3cc(CC(=O)Nc4cccc(F)c4)[nH]n3)ncnc2c1 [AZD2811] (first compound max 1 µM, 7x7, partner max 1 µM)	0.0557	-0.0197	-0.0335	0.0393	-0.0138	-0.0349	-0.062	0.0514	0.0101	-0.0259	0.572	0.448	0.932	0.171	0.191	0.153	0.512	0.138	0.378	0.928
CN(CCO)CC[C@H](CSc1ccccc1)Nc1ccc(S(=O)(=O)NC(=O)c2ccc(N3CCC([C@@H](O)c4ccccc4-c4ccc(Cl)cc4)CC3)cc2)cc1S(=O)(=O)C(F)(F)F [AZD4320] + C[C@@H]1COCCN1C2=NC(=NC(=C2)C3(CC3)[S@](=N)(=O)C)C4=C5C=CNC5=NC=C4 [AZD6738] (first compound max 1 µM, 7x7, partner max 10 µM)	0.0036	-0.0483	0.12	-0.044	-0.0089	-0.0789	-0.0694	-0.0313	0.0475	-0.012	0.969	0.874	0.716	0.6	0.955	0.547	0.695	0.461	0.405	0.949
CN(CCO)CC[C@H](CSc1ccccc1)Nc1ccc(S(=O)(=O)NC(=O)c2ccc(N3CCC([C@@H](O)c4ccccc4-c4ccc(Cl)cc4)CC3)cc2)cc1S(=O)(=O)C(F)(F)F [AZD4320] + Cc1cc2ncnn2cc1Nc1ncc2c(n1)n(C1CCOCC1)c(=O)n2C [AZD7648] (first compound max 1 µM, 7x7, partner max 10 µM)	-0.0082	-0.0479	-0.0592	-0.0254	0.0104	-0.0219	-0.0548	-0.0352	-0.0152	-0.0364	0.163		0.735	0.405	0.221	0.111	0.198	0.229	0.193	0.979
CN(CCO)CC[C@H](CSc1ccccc1)Nc1ccc(S(=O)(=O)NC(=O)c2ccc(N3CCC([C@@H](O)c4ccccc4-c4ccc(Cl)cc4)CC3)cc2)cc1S(=O)(=O)C(F)(F)F [AZD4320] + Cn1cnc2c(F)c(Nc3ccc(Br)cc3Cl)c(C(=O)NOCCO)cc21 [Selumetinib] (first compound max 1 µM, 7x7, partner max 3 µM)	0.135	-0.0508	0.0732	0.0324	0.021	-0.0202	0.0488	0.0024	0.042		0.593	0.617	0.753	0.57	0.307	0.386	0.973	0.406	0.544	0.97
CN(CCO)CC[C@H](CSc1ccccc1)Nc1ccc(S(=O)(=O)NC(=O)c2ccc(N3CCC([C@@H](O)c4ccccc4-c4ccc(Cl)cc4)CC3)cc2)cc1S(=O)(=O)C(F)(F)F [AZD4320] + Nc1ccn([C@@H]2O[C@H](CO)[C@@H](O)C2(F)F)c(=O)n1 [Gemcitabine] (first compound max 1 µM, 7x7, partner max 0.3 µM)											0.927	0.685	0.702	0.311	0.812	0.202	0.634	0.461	0.927	0.934
Cc1cc2ncnn2cc1Nc1ncc2c(n1)n(C1CCOCC1)c(=O)n2C [AZD7648] + COc1cc([C@@H]2c3cc4c(cc3[C@@H](O[C@@H]3O[C@@H]5CO[C@@H](C)O[C@H]5[C@H](O)[C@H]3O)[C@H]3COC(=O)[C@H]23)OCO4)cc(OC)c1O [Etoposide] (first compound max 10 µM, 7x7, partner max 10 µM)											0.869	0.744	0.615	0.253	0.976	0.459	0.269	0.335	0.86	0.522
N#Cc1cnc(Nc2cc(NC[C@H]3CNCCO3)c(C(F)(F)F)cn2)cn1 [SRA737] + C=CCn1c(=O)c2cnc(Nc3ccc(N4CCN(C)CC4)cc3)nc2n1-c1cccc(C(C)(C)O)n1 [AZD1775] (first compound max 10 µM, partner max 1 µM)											0.957	0.854	0.413	0.512	0.966	0.906	0.667	0.543	0.218	0.922
N#Cc1cnc(Nc2cc(NC[C@H]3CNCCO3)c(C(F)(F)F)cn2)cn1 [SRA737] + CCc1c2c(nc3ccc(O)cc13)-c1cc3c(c(=O)n1C2)COC(=O)[C@]3(O)CC [SN-38] (first compound max 10 µM, 7x7, partner max 0.3 µM)											0.954	0.9	0.689	0.631	0.999	0.94	0.609	0.57	0.948	0.714
N#Cc1cnc(Nc2cc(NC[C@H]3CNCCO3)c(C(F)(F)F)cn2)cn1 [SRA737] + Nc1ccn([C@@H]2O[C@H](CO)[C@@H](O)C2(F)F)c(=O)n1 [Gemcitabine] (first compound max 10 µM, 7x7, partner max 0.3 µM)											0.867	0.856	0.684	0.477	0.998	0.83	0.436	0.597	0.944	0.861
N#Cc1cnc(Nc2cc(NC[C@H]3CNCCO3)c(C(F)(F)F)cn2)cn1 [SRA737] + O=c1[nH]cc(F)c(=O)[nH]1 [5-Fluorouracil] (first compound max 10 µM, 7x7, partner max 20 µM)											0.606	0.749	0.355	0.405	0.996	0.379	0.428	0.474	0.0967	0.693
